Consider one compound from patent US9884040B2, “Desethylamiodarone for use in cancer treatment” (PÉCSI TUDOMÁNYEGYETEM, priority 2015, dated 2018).

Assay [1] deals with MCF 7 breast cancer cells. Kind of assay: Radiotherapy plus DEA, MTT viability, MCF 7. In kind it is cell-based. To be noted: 2Gy, 24, 48 and 72 hours, increasing DEA. The method, then:
The cells were seeded into 96-well plates at a starting density of 10^4 cells per well and cultured overnight before DEA was added to the medium for 24 h and 48 h. The medium was changed to a fresh one containing 0.5% of 3-[4,5-dimethylthiazol-2-yl]-2,5-diphenyl-tetrazolium bromide (MTT+) for an additional 3 hours, then the MTT+ reaction was terminated by adding HCl to 10 mM final concentration. The amount of blue formazan dye formed from MTT+ was proportional to the number of live cells, and was determined with an Anthos Labtech 2010 ELISA reader at 550 nm. All experiments were run in at least 4 replicates and repeated 3 times.
MCF 7 cells were exposed to 2Gy irradiation for 24, 48 and 72 hours in presence or absence of increasing concentration of DEA. Viability of the cells was detected by the MTT method. Untreated cells served as controls.

The subject of assay [2] is 4T1 (mouse mammary carcinoma) cells. Kind of assay: Colony formation assay, 4T1. In kind it is cell-based. To be noted: one week following treatment. From the text:
Desethylamiodarone (DEA) is the main metabolite of the widely used anti-arrhythmic drug amiodarone. DEA also has antiarrhythmic activity in clinical relevant concentration. […] (27, 28, 29, 30) DEA accumulates rapidly in the lungs. […] Here, we checked whether Desethylamiodarone can affect invasion, migration of cancer cells. First of all, we initially checked whether desethylamiodarone has effect on the viability of T24 (human urinary bladder carcinoma), B16F10 (mice melanoma), 4T1 (mouse mammary carcinoma) cells using MTT assay. As shown in FIG. 1-3 Desethylamiodarone had significant cytotoxic activity in very low concentrations. To assess the recovery ability of cells that survived treatment, long-term (7 days) colony formation assay was performed.
(§1) Cells were trypsinized and plated in triplicate into 6-well plates at 500 cells/well. Cells were treated with different concentration of Dea. After 7 days of incubation, cells were washed and stained with Coomassie-blue, and the colonies containing more than 50 cells were counted. The number of colonies were determined and normalized to the number of colonies in controls.

For assay [3], the system named is B16F10 melanoma lung metastasis. Kind of assay: Mouse model of B16F10 lung metastasis. In kind it is in vivo, C57BL/6 mice. The method, then:
To produce experimental metastasis model, male C57BL/6 mice (6 weeks old) were used. B16F10 cells ([…]/0.1 ml) were injected into the lateral tail vein of C57BL/6 mice, using a 30G1/2 needle and a 1-mL syringe. Mice were randomly divided into 3 groups of 6 mice each. Each mouse was given a daily intragastric injection of either 100 μl 15% ethanol solution as the vehicle control or 25 mg/kg DEA. Treatment was started 1 day before cell injection and was given every third day, lasted for consecutive 16 days Sixteen days after injection, the animals were weighed and killed. The lungs were removed, rinsed in PBS, and weighed. The lung weight index was calculated as the ratio of lung weight vs body weight. The harvested lungs were fixed in 4% formalin. Tumor foci on the surfaces of the lungs were counted under a stereomicroscope. Then, the whole lung was embedded in optimum cutting temperature compound (Sakura Finetek, SA), sectioned ([…], 5 levels), and stained with hematoxylin and eosin (H&E) according to routine protocols. […] The percentage of total area of the stained sections occupied by tumor was measured using the Panoramic viewer 1.15.4 (3[…], Hungary) Murine melanoma B16F10 cells were injected into the lateral tail vein of 6-weeks-old male C57BL/6 mice and divided into two groups (6 mice/group). […] Lungs were photographed (FIG. 9 A,B), weighted and lung weight index was calculated as the ratio of lung weight versus body weight of host mice, and was compared between the two groups. […] Metastatic nodules on lung surface were counted. […] 24 h after injection of melanoma B16F10 cells, mice in the control group were treated with vehicle (alcohol), mice in the treatment group were injected with desethylamiodarone (25 mg/kg, i.p., every 3rd day.) After 16 day's mice were sacrificed and then analyzed. […] Lung weight was determined and lung weight index was calculated (C). Tumor growth was monitored also by counting the tumor nodules (D). […] Lung tissue sections were analyzed histopathological after H & E staining. […]

Assay [4] relates to T24/83 human urinary bladder carcinoma cell line. Kind of assay: Colony formation assay, T24. In kind it is cell-based. To be noted: 7 days; 500 nM-3 μM. The method, then: as §1
To assess the recovery ability of cells that survived treatment, long-term (7 days) colony formation assay was performed.
Untreated cells served as controls. The results are mean±SEM of 3 independent experiments performed in at least quadruplicate. p<0.01 compared to the corresponding control group. The data shown on FIG. 5 provide evidence that DEA can be useful to treat bladder cancer.

Assay [5] relates to HeLa human cervix adenocarcinoma cell line. Kind of assay: Radiotherapy plus DEA, colony formation, HeLa. The assay is classed as cell-based. The note with it: 1Gy or 2Gy single dose alone or with 500 nM-3 μM DEA. The method, then: Cells were trypsinized and plated in triplicate into 6-well plates at 500 cells/well. Cells were treated with different concentration of DEA and irradiated with a dose of 1.0 and 2.0 Grays. A telecobalt (Therathron 780 C) external irradiation equipment (average photon energy of 1.25 MeV) will be applied for irradiating cells. After 7 days of incubation, cells were washed and stained with Coomassie-blue, and the colonies containing more than 50 cells were counted. The number of colonies were determined and normalized to the number of colonies in controls.
To examine the effects of a DEA on the effectiveness of radiotherapy the cells were treated with 1Gy or 2Gy single dose irradiation alone or combined with 500 nM-3 μM DEA.
The cells were treated with 1Gy or 2Gy single dose irradiation alone or combined with 500 nM-3 μM DEA. Untreated cells served as controls. The results are mean±SEM of 3 independent experiments performed in at least quadruplicate. p<0.05, compared to the corresponding control group.

Assay [6] concerns mitochondrial permeability transition. The note with it: applicants' previous published results; cited from earlier work.
The mark [7] stands for this setting: 25 mg/kg i.p. every 3rd day, day 16, B16F10 tail vein injection.

Consider `CCCCc1oc2ccccc2c1C(=O)c1cc(I)c(OCCNCC)c(I)c1` [DEA, (2-butyl-3-benzofuranyl)[4-[2-(ethylamino)ethoxy]-3,5-diiodophenyl]-methanone], for which the “Radiosensitization, viability of MCF 7 (MTT)” value in assay [1] was “sensitize MCF 7 breast cancer cells to irradiation”. The “Colony formation, 4T1” value in assay [2] is “significant decrease in the number and the size of colonies”. In addition, in assay [3] (setting [7]), the “Lung weight index (lung weight versus body weight)” value is on record as “significantly *P<0.001 inhibited lung weight increase” and the “Number of tumor nodules on lung surface” value was “dramatically decrease in the number of tumor nodules”. Besides, in assay [3] (25 mg/kg/3 days, n=6 per group), the “Percentage of tumor area over lung section area (H&E)” value is on record as “significantly decreased”. The “Colony formation, T24” value in assay [4] is “significant decrease in the number and the size of colonies”. Also, the “Radiosensitization, colony formation, HeLa” value in assay [5] is recorded as “sensitize cervix cancer to irradiation”. Also, the Mitochondrial permeability transition result in assay [6] is on record as “caused mitochondrial permeability transition”.
